Holding throughout (type): cell-based
Data set [1] is described as follows: MTT cell viability run in parallel with the Tat-hybrid assay. The settings on record: human, Tat-hybrid reporter cell lines (HeLa); for CC50 at 48 h: Table 5, read-out: Tat hybrid TC50; for EC50 at 48 h: Table 6, second 'EC50' entry of the cell, values D/E. On the procedure:
(§1) Cells were counted and plated into white 384-well or 96-well cell-culture treated assay plates and compounds were added. After 48 hours, the cells were prepared for luminescence assays that were performed on a plate reader (Tecan Evolution or MD Analyst). The cytotoxicity of each compound was determined in parallel via MTT-based cell viability assays.
(§2) Tat hybrid reporter assay. […] Previously characterized thienopyridines and diaminoacridine were used as controls. Cells were counted and plated into white 384-well cell-culture treated assay plates and compounds were added. After 48 hours, the cells were prepared for lumincescence assays that were performed on a plate reader (Tecan Evolution or MD Analyst). The cytotoxicity of each compound was determined in parallel via MTT-based cell viability assays. […]

In data set [2] the test system is Tat-hybrid reporter cell lines (HeLa). The description is as above. Conditions: Table 6; at 50,000 nM. On the procedure: as §1, §2
Data set [3] concerns HIV-1 provirus in U1 cells. The data set can be described thus: U1 activation (latency) assay, p24 ELISA. The settings on record: Human immunodeficiency virus 1, read-out: U1 cell IC50 (nM). On the procedure:
U1 activation assay. U1 cells obtained from the AIDS Research and Reference Reagent Program were maintained under standard culture conditions in RPMI 1640 supplemented with 10% fetal bovine serum (heat inactivated), 2 mM L-glutamine, 100U/mL penicillin and 100 μg/mL streptomycin. U1 cells contain an integrated copy of a phorbol ester inducible HIV-1 provirus and addition of phytohemagglutinin (PHA) to the cell culture was used to induce virus production. On the day of the assay, the U1 cells were activated with PHA and 250,000 cells were plated in 96-well plates. Test compounds were diluted in media and applied to the cells at final concentrations from 1 to 10,000 nM. Cultures were incubated for 3 days and supernatants harvested. Cell-free virus production was measured by p24 ELISA on culture supernatant. Compound toxicity was determined by MTT cell-viability assay in parallel assays.

Turning to `NC(=O)c1sc2cncc(N3CCOCC3)c2c1N`, the CC50 at 48 h in data set [1] is under 40 µM. In the case of `NC(=O)c1cccc(-c2cncc3sc(C(N)=O)c(N)c23)c1`, the CC50 at 48 h in data set [1] is under 40 µM. For `CN(Cc1cccs1)c1cncc2sc(C(N)=O)c(N)c12`, the CC50 at 48 h in data set [1] is under 40 µM. Same read-out and setting: next, `Cc1cccc(N2CCN(c3cncc4sc(C(N)=O)c(N)c34)CC2)n1`: under 40 µM; `COc1cc(C(=O)N2CCN(c3cncc4sc(C(N)=O)c(N)c34)CC2)ccc1C`: under 40 µM. `NC(=O)c1sc2cncc(-c3cccc4cccnc34)c2c1N`: the CC50 at 48 h in data set [1] was over 40 µM. The same measure, in the same setting: next, `NC(=O)c1sc2cncc(Cl)c2c1N`: under 40 µM.

As for `NC(=O)c1sc2nc(-c3cccnc3)ccc2c1N`, the concentration giving a half-maximal response (EC50) (as a rule, the concentration needed to bring the measured effect to its halfway point) at 48 h in data set [1] is under 40 µM. In addition, the “Tat hybrid cell viability at 50,000 nM” value in data set [2] was “X (X = >60%)”.

Regarding `COC(=O)c1sc2nc(C)cc(C)c2c1N`, in data set [1], the EC50 at 48 h was over 40 µM. The “Tat hybrid cell viability at 50,000 nM” value in data set [2] was “X (X = >60%)”. In the same order, the values of `Cc1nc2sc(C(N)=O)c(N)c2c(C)c1C` are over 40 µM and “X (X = >60%)”. Regarding `Cc1cc(C(F)F)nc2sc(C(N)=O)c(N)c12`, the EC50 at 48 h in data set [1] is over 40 µM. Also, the “Tat hybrid cell viability at 50,000 nM” value in data set [2] was “X (X = >60%)”.

As to `Cc1cc(C(F)(F)F)nc2sc(C(N)=O)c(N)c12`, the 50% effective concentration (EC50) at 48 h in data set [1] is over 40 µM. Besides, the “Tat hybrid cell viability at 50,000 nM” value in data set [2] is “Y (Y = 30-60%)”.

As to `CC(C)c1ccc2nc3sc(C(N)=O)c(N)c3cc2c1`, the EC50 at 48 h in data set [1] was under 40 µM. In addition, in data set [2], the “Tat hybrid cell viability at 50,000 nM” value was “X (X = >60%)”. For `COc1ccc(-c2cc(C3CC3)nc3sc(C(N)=O)c(N)c23)cc1`, the EC50 at 48 h in data set [1] is over 40 µM. Moreover, the “Tat hybrid cell viability at 50,000 nM” value in data set [2] was “X (X = >60%)”. Take `Cc1ccnc2sc(C(N)=O)c(N)c12`: in data set [1], the half-maximal effective concentration (EC50) at 48 h was under 40 µM. In data set [2], the “Tat hybrid cell viability at 50,000 nM” value is recorded as “X (X = >60%)”. In the same order, the values of `Cc1cc(C)c2c(N)c(C(=O)O)sc2n1` are over 40 µM and “X (X = >60%)”. `NC(=O)c1sc2ncccc2c1N` yielded an EC50 at 48 h in data set [1] of over 40 µM. For the same compound, in data set [2], the “Tat hybrid cell viability at 50,000 nM” value is given as “Y (Y = 30-60%)”. In data set [1], `CC(=O)c1sc2nc(C)cc(C)c2c1N` yielded an EC50 at 48 h of over 40 µM. In data set [2], the “Tat hybrid cell viability at 50,000 nM” value is reported as “Y (Y = 30-60%)”. For the compound `COC(=O)c1sc2nccc(N(C)C)c2c1N`, in data set [1], the EC50 at 48 h is under 40 µM. Also, in data set [2], the “Tat hybrid cell viability at 50,000 nM” value was “X (X = >60%)”. With `CN(C)C(=O)c1sc2ncccc2c1N`, in data set [1], the EC50 at 48 h is under 40 µM. Further, the “Tat hybrid cell viability at 50,000 nM” value in data set [2] was “X (X = >60%)”. In the case of `CN(C)c1ccnc2sc(C(N)=O)c(N)c12` [Compound 1f, 3-amino-4-(dimethylamino)thieno[2,3-b]pyridine-2-carboxamide], the half-maximal inhibitory concentration (IC50) – broadly, the concentration that gives 50% inhibition – in data set [3] was over 500 nM. `NC(=O)c1sc2cncc(N3CCC(C(N)=O)CC3)c2c1N` [Compound 2c, 1-{3-amino-2-carbamoylthieno[2,3-c]pyridin-4-yl}piperidine-4-carboxamide]: in data set [3], the IC50 fell in the range of 100 to 500 nM. As for `NC(=O)c1sc2cncc(N3CCC4(CC3)OCCO4)c2c1N` [Compound 2g, 3-amino-4-{1,4-dioxa-8-azaspiro[4.5]decan-8-yl}thieno[2,3-c]pyridine-2-carboxamide], in data set [3], the concentration for half-maximal inhibition (IC50) fell in the range of 100 to 500 nM. `NC(=O)c1sc2cncc(N3CCC(F)(F)CC3)c2c1N` [Compound 2h, 3-amino-4-(4,4-difluoropiperidin-1-yl)thieno[2,3-c]pyridine-2-carboxamide]: the IC50 in data set [3] was 100 to 500 nM.

As to `NC(=O)c1sc2nccc(N3CCc4ccccc4C3)c2c1N` [Compound 2i, 3-amino-4-(1,2,3,4-tetrahydroisoquinolin-2-yl)thieno[2,3-b]pyridine-2-carboxamide], the IC50 in data set [3] was under 100 nM.

On to `NC(=O)c1sc2cncc(N3CCC(Oc4ccccc4)CC3)c2c1N` [Compound 2j, 3-amino-4-(4-phenoxypiperidin-1-yl)thieno[2,3-c]pyridine-2-carboxamide], for which, in data set [3], the IC50 was under 100 nM.

These data come from patent US10154992B2, “Compounds and methods for treating HIV infection” (THE REGENTS OF THE UNIVERSITY OF CALIFORNIA, priority 2016, dated 2018).
